The target in one assay is T1, FGFR3 (Homo sapiens, UniProt P22607).
T1 construct: purchased Carna 08-135
Briefly: FGFR3 Biochemical Caliper Assay (KinEASE-TK kit). Conditions: ratio FGFR3/FGFR2 of the biochemical assay. The essentials:
(§1)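 KinEASE-TK HTRF readout: enzyme at 0.2 nM (FGFR1, FGFR3) preincubated 10 min at RT with 10-point 3-fold compound dilutions before TK-substrate/ATP start.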

The target in another assay is T2, FGFR2 (Homo sapiens, UniProt P21802).
T2 construct: purchased Carna 08-134
Briefly: FGFR2 Biochemical Caliper Assay (KinEASE-TK kit). The note with it: 0.07 nM FGFR2; compound incubated with protein 10 min, reaction 45 min at RT; read-out: FGFR2 Cliper IC50.

A further assay has as its system SNU16 cells. Put plainly: SNU16 Cancer Cell Line Proliferation Assay (CellTiter-Glo). Conditions: Homo sapiens, SNU-16, 72 h. The class given is cell-based. Summed up:
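SNU16 cells at 5000/well exposed to 9-point 3-fold serial compound dilutions (DMSO control) for 72 h at 37 °C, 5% CO2. Viability read by luminescence; IC50 calculated from dose-response.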
(ATP-based viability assays read luminescence as a measure of living cells.)

Another assay concerns the target T3, FGFR1 (Homo sapiens, UniProt P11362).
T3 construct: purchased Carna 08-133
Briefly: FGFR1 Biochemical Caliper Assay (KinEASE-TK kit). Conditions: ratio FGFR1/FGFR2 of the biochemical assay. Summed up:
as §1

The structures appear in SMILES notation. pIC50: −log10 of the molar value.

T3 sequence (P11362 22-822): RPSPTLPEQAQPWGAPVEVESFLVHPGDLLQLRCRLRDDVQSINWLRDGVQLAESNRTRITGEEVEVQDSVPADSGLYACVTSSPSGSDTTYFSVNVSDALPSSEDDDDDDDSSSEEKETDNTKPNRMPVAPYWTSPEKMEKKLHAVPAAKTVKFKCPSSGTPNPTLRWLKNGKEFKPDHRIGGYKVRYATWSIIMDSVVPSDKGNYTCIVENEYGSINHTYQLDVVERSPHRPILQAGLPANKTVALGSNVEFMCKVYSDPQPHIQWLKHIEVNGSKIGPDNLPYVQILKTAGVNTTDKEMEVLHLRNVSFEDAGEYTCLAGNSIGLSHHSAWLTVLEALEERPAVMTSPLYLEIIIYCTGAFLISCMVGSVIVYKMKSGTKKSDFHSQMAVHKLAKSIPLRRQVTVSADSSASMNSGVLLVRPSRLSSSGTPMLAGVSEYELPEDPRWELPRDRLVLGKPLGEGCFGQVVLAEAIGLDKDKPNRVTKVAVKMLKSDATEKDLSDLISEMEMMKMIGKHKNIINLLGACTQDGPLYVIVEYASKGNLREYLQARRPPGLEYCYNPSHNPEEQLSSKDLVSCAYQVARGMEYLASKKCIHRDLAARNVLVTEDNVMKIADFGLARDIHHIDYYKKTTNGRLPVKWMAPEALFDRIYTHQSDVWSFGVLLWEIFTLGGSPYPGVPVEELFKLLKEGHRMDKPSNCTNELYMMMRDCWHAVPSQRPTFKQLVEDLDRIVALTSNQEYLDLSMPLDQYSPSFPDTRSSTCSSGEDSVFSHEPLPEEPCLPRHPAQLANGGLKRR
T2 sequence (P21802 22-821): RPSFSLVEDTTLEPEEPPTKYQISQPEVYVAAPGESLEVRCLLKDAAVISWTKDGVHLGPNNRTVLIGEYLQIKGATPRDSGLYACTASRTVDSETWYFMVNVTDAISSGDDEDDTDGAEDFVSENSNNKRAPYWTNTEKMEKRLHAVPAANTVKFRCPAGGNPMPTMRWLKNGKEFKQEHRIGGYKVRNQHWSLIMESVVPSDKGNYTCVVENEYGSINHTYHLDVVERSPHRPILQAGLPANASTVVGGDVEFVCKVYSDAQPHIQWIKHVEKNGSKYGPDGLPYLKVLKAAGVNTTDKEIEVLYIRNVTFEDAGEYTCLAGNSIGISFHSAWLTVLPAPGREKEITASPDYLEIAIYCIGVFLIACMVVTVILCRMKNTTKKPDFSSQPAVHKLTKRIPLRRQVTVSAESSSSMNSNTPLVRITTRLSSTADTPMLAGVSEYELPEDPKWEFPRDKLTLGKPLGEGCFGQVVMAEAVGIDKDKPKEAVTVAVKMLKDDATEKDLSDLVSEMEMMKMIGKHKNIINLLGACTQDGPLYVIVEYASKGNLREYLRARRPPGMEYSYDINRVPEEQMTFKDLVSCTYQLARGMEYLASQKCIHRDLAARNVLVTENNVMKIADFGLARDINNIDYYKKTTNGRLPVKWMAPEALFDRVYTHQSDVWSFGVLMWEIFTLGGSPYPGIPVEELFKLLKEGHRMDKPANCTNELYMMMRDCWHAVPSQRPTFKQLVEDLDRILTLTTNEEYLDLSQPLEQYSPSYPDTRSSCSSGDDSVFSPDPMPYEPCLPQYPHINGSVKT
T1 sequence (P22607 23-806): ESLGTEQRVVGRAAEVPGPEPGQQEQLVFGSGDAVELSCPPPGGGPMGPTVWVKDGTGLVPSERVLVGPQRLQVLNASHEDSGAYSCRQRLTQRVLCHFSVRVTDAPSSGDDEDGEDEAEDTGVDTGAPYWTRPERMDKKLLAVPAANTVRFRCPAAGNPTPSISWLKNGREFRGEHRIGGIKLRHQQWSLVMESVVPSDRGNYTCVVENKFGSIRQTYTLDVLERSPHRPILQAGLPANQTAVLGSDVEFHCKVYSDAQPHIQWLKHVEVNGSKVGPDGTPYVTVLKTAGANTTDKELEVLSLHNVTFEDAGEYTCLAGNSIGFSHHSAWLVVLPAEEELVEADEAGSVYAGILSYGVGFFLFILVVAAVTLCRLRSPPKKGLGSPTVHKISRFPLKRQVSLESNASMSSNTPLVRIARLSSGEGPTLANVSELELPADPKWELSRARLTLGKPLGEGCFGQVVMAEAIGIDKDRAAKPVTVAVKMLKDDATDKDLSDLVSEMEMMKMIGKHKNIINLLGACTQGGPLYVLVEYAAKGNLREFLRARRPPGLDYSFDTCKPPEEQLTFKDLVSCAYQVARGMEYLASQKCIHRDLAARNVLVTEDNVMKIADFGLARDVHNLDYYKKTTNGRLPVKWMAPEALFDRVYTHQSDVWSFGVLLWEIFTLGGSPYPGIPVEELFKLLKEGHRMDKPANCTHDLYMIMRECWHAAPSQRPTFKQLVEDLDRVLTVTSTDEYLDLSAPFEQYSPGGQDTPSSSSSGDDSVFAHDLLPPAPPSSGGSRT

One may read the pIC50 as the IC50 on a negative log10 scale, so that one unit is a factor of ten. Take `C=C(F)C(=O)Nc1ccc(-c2nn3ncnc(N)c3c2-c2ccc(C(=O)NCC(F)(F)F)c(OC)c2)c(OC)c1` [Compound 102, 4-(4-amino-6-(4-(2-fluoroacrylamido)-2-methoxyphenyl)pyrazolo[5,1-f][1,2,4]triazin-5-yl)-2-methoxy-N-(2,2,2-trifluoroethyl)benzamide]: at FGFR3, the “Selectivity FGFR3/FGFR2” value was “B (Selectivity of FGFR3/FGFR2 less than 100 but greater than or equal to 25)”. Further, the pIC50 is < 8.00 on FGFR2 and ≥ 8.00 in the assay on SNU16 cells. Besides, on FGFR1, the “Selectivity FGFR1/FGFR2” value is “B (Selectivity of FGFR1/FGFR2 less than 300 but greater than or equal to 200)”.

Consider `C=CC(=O)Nc1ccc(-c2c(-c3ccc(C(=O)NCC(F)F)c(OC)c3)c3c(N)ncc(C#N)c3n2C)cc1` [Compound 198, 4-(2-(4-acrylamidophenyl)-4-amino-7-cyano-1-methyl-1H-pyrrolo[3,2-c]pyridin-3-yl)-N-(2,2-difluoroethyl)-2-methoxybenzamide], for which the “Selectivity FGFR3/FGFR2” value at FGFR3 is “A+ (Selectivity of FGFR3/FGFR2 greater or equal to 150)”. In addition, the negative logarithm of the IC50 (pIC50) at FGFR2 is > 8.30; with SNU16 cells it was ≥ 8.00. At FGFR1, the “Selectivity FGFR1/FGFR2” value is recorded as “A (Selectivity of FGFR1/FGFR2 less than 500 but greater than or equal to 300)”.

`C#CC(=O)Nc1ccc(-c2nn3ncnc(N)c3c2-c2ccc(Oc3cccc(C)n3)c(F)c2)cc1` [Compound 410]: the “Selectivity FGFR3/FGFR2” value at FGFR3 was “A (Selectivity of FGFR3/FGFR2 less than 150 but greater than or equal to 100)”. Further, the figures for the pIC50 at FGFR2 and in the assay on SNU16 cells were > 8.30 and < 7.30, respectively. Further, the “Selectivity FGFR1/FGFR2” value on FGFR1 is reported as “A (Selectivity of FGFR1/FGFR2 less than 500 but greater than or equal to 300)”.

As for `C=C(F)C(=O)Nc1ccc(-c2[nH]c3c(C#N)cnc(N)c3c2-c2ccc(C(=O)NC3CC3)c(OC)c2)c(F)c1` [Compound 267, 4-(4-amino-7-cyano-2-(2-fluoro-4-(2-fluoroacrylamido)phe-nyl)-1H-pyrrolo[3,2-c]pyridin-3-yl)-N-cyclopropyl-2-methoxybenzamide], the “Selectivity FGFR3/FGFR2” value at FGFR3 was “A+ (Selectivity of FGFR3/FGFR2 greater or equal to 150)”. Also, the values for the pIC50 on FGFR2 and in the assay on SNU16 cells were > 8.30 and ≥ 8.00, respectively. Besides, the “Selectivity FGFR1/FGFR2” value at FGFR1 is “B (Selectivity of FGFR1/FGFR2 less than 300 but greater than or equal to 200)”.

For `C=C(F)C(=O)Nc1ccc(-c2nn3ncnc(N)c3c2-c2ccc(C(=O)NC3CC3)c(OC)c2)c(F)c1` [Compound 153, 4-(4-amino-6-(2-fluoro-4-(2-fluoroacrylamido)phenyl)pyrazolo[5,1-f][1,2,4]triazin-5-yl)-N-cyclopropyl-2-methoxybenzamide], at FGFR3, the “Selectivity FGFR3/FGFR2” value is recorded as “A+ (Selectivity of FGFR3/FGFR2 greater or equal to 150)”. The pIC50 was > 8.30 at FGFR2 and ≥ 8.00 with SNU16 cells. In addition, the “Selectivity FGFR1/FGFR2” value at FGFR1 is on record as “A+ (Selectivity of FGFR1/FGFR2 greater or equal to 500)”.

On to `C=CC(=O)Nc1ccc(-c2c(-c3ccc(C(=O)NC4CC(F)(F)C4)c(OC)c3)c3c(N)ncc(C#N)c3n2C)cc1` [Compound 188, 4-(2-(4-acrylamidophenyl)-4-amino-7-cyano-1-methyl-1H-pyrrolo[3,2-c]pyridin-3-yl)-N-(3,3-difluorocyclobutyl)-2-methoxybenzamide], for which, on FGFR3, the “Selectivity FGFR3/FGFR2” value was “B (Selectivity of FGFR3/FGFR2 less than 100 but greater than or equal to 25)”. The pIC50 on FGFR2 was > 8.30; in the assay on SNU16 cells, ≥ 8.00. Also, the “Selectivity FGFR1/FGFR2” value on FGFR1 is “B (Selectivity of FGFR1/FGFR2 less than 300 but greater than or equal to 200)”.

In the case of `C=C(F)C(=O)Nc1ccc(-c2[nH]c3c(C#N)cnc(N)c3c2-c2ccc(C(=O)NC3(C)CC3)c(OC)c2)cc1` [Compound 321, 4-(4-amino-7-cyano-2-(4-(2-fluoroacrylamido)phe-ny1)-1H-pyrrolo[3,2-c]pyridin-3-yl)-2-methoxy-N-(1-methylcyclopropyl)benzamide], on FGFR3, the “Selectivity FGFR3/FGFR2” value is on record as “A+ (Selectivity of FGFR3/FGFR2 greater or equal to 150)”. The pIC50 on FGFR2 is 8.00 to 8.30; in the assay on SNU16 cells it was ≥ 8.00. Besides, on FGFR1, the “Selectivity FGFR1/FGFR2” value is reported as “C (Selectivity of FGFR1/FGFR2 less than 200 but greater than or equal to 100)”.

Take `C=CC(=O)Nc1ccc(-c2nn3ncnc(N)c3c2-c2ccc(C(=O)NCCF)c(OC)c2)cc1` [Compound 194, 4-(6-(4-acrylamidophenyl)-4-aminopyrazolo[5,1-f][1,2,4]triazin-5-yl)-N-(2-fluoroethyl)-2-methoxybenzamide]: the “Selectivity FGFR3/FGFR2” value at FGFR3 is recorded as “A+ (Selectivity of FGFR3/FGFR2 greater or equal to 150)”. For the same molecule, the pIC50 on FGFR2 was 8.00 to 8.30; in the assay on SNU16 cells, ≥ 8.00. On FGFR1, the “Selectivity FGFR1/FGFR2” value was “B (Selectivity of FGFR1/FGFR2 less than 300 but greater than or equal to 200)”.

As for `C=CC(=O)Nc1ccc(-c2c(-c3ccc(C(=O)NC4CC4)c(OC)c3)c3c(N)ncc(C#N)c3n2C)cc1` [Compound 105], the “Selectivity FGFR3/FGFR2” value on FGFR3 is given as “A (Selectivity of FGFR3/FGFR2 less than 150 but greater than or equal to 100)”. In addition, the pIC50 was > 8.30 on FGFR2 and ≥ 8.00 with SNU16 cells. In addition, the “Selectivity FGFR1/FGFR2” value at FGFR1 is given as “A+ (Selectivity of FGFR1/FGFR2 greater or equal to 500)”.

In the case of `C=CC(=O)Nc1ccc(-c2c(-c3ccc(C(=O)NC(C)C)c(OC)c3)c3c(N)ncc(C#N)c3n2C)cc1` [Compound 108, 4-(2-(4-acrylamidophenyl)-4-amino-7-cyano-1-methyl-1H-pyrrolo[3,2-c]pyridin-3-yl)-N-isopropyl-2-methoxybenzamide], the “Selectivity FGFR3/FGFR2” value at FGFR3 was “A (Selectivity of FGFR3/FGFR2 less than 150 but greater than or equal to 100)”. Besides, the values for the pIC50 at FGFR2 and with SNU16 cells were > 8.30 and ≥ 8.00, respectively. Moreover, the “Selectivity FGFR1/FGFR2” value at FGFR1 is listed as “A+ (Selectivity of FGFR1/FGFR2 greater or equal to 500)”.

`C=C(F)C(=O)Nc1ccc(-c2c(-c3ccc(Oc4nccc(C)n4)c(F)c3)c3c(N)ncc(C#N)c3n2C)cc1` [Compound 344, N-(4-(4-amino-7-cyano-3-(3-fluoro-4-((4-methylpyrimidin-2-yl)oxy)phenyl)-1-methyl-1H-pyrrolo[3,2-c]pyridin-2-yl)phenyl)-2-fluoroacrylamide]: the “Selectivity FGFR3/FGFR2” value at FGFR3 is recorded as “A (Selectivity of FGFR3/FGFR2 less than 150 but greater than or equal to 100)”. For the same molecule, the pIC50 was > 8.30 at FGFR2 and ≥ 8.00 in the assay with SNU16 cells. In addition, the “Selectivity FGFR1/FGFR2” value on FGFR1 is given as “A+ (Selectivity of FGFR1/FGFR2 greater or equal to 500)”.

As to `C=CC(=O)Nc1ccc(-c2c(-c3ccc(C(=O)NC4CCCC4)c(OC)c3)c3c(N)ncc(C#N)c3n2C)cc1` [Compound 109, 4-(2-(4-acrylamidophenyl)-4-amino-7-cyano-1-methyl-1H-pyrrolo[3,2-c]pyridin-3-yl)-N-cyclopentyl-2-methoxybenzamide], the “Selectivity FGFR3/FGFR2” value on FGFR3 is on record as “B (Selectivity of FGFR3/FGFR2 less than 100 but greater than or equal to 25)”. Besides, the pIC50 is > 8.30 on FGFR2 and ≥ 8.00 in the assay with SNU16 cells. Further, the “Selectivity FGFR1/FGFR2” value at FGFR1 is on record as “A+ (Selectivity of FGFR1/FGFR2 greater or equal to 500)”.

For `C=CC(=O)Nc1ccc(-c2nn3ncnc(N)c3c2-c2ccc(NC(=O)C3CC(F)(F)C3)c(OC)c2)cc1` [Compound 340, N-(4-(6-(4-acrylamidophenyl)-4-aminopyrazolo[5,1-f][1,2,4]triazin-5-yl)-2-methoxyphenyl)-3,3-difluorocyclobutane-1-carboxamide], the “Selectivity FGFR3/FGFR2” value on FGFR3 is given as “A (Selectivity of FGFR3/FGFR2 less than 150 but greater than or equal to 100)”. The results for the negative-log IC50 (pIC50) at FGFR2 and in the assay with SNU16 cells were < 8.00 and ≥ 8.00, respectively. For the same molecule, the “Selectivity FGFR1/FGFR2” value on FGFR1 is given as “B (Selectivity of FGFR1/FGFR2 less than 300 but greater than or equal to 200)”.

On to `C=C(F)C(=O)Nc1ccc(-c2nn3ncnc(N)c3c2-c2ccc(C(=O)NC3(C(F)(F)F)CC3)c(OC)c2)c(OC)c1` [Compound 415], for which the “Selectivity FGFR3/FGFR2” value at FGFR3 was “B (Selectivity of FGFR3/FGFR2 less than 100 but greater than or equal to 25)”. Besides, the negative logarithm of the IC50 (pIC50) was > 8.30 at FGFR2 and ≥ 8.00 in the assay with SNU16 cells. Besides, on FGFR1, the “Selectivity FGFR1/FGFR2” value is “B (Selectivity of FGFR1/FGFR2 less than 300 but greater than or equal to 200)”.

Take `C=C(C)C(=O)Nc1ccc(-c2c(-c3ccc(Oc4nccc(C)n4)c(F)c3)c3c(N)ncc(C#N)c3n2C)c(Cl)c1` [Compound 473, N-(4-(4-amino-7-cyano-3-(3-fluoro-4-((4-methylpyrimidin-2-yl)oxy)phenyl)-1-methyl-1H-pyrrolo[3,2-c]pyridin-2-yl)-3-chlorophenyl)methacrylamide]: the “Selectivity FGFR3/FGFR2” value on FGFR3 is “A+ (Selectivity of FGFR3/FGFR2 greater or equal to 150)”. For the same molecule, the pIC50 on FGFR2 was > 8.30; with SNU16 cells, ≥ 8.00. In addition, the “Selectivity FGFR1/FGFR2” value on FGFR1 is listed as “A+ (Selectivity of FGFR1/FGFR2 greater or equal to 500)”.

On to `[2H]C([2H])([2H])n1c(-c2ccc(NC(=O)C=C)cc2)c(-c2ccc(C(=O)NCC(F)(F)F)c(OC)c2)c2c(N)ncc(C#N)c21` [Compound 355, 4-(2-(4-acrylamidophenyl)-4-amino-7-cyano-1-(methyl-d3)-1H-pyrrolo[3,2-c]pyridin-3-yl)-2-methoxy-N-(2,2,2-trifluoroethyl)benzamide], for which the “Selectivity FGFR3/FGFR2” value on FGFR3 is “A+ (Selectivity of FGFR3/FGFR2 greater or equal to 150)”. Moreover, the pIC50 at FGFR2 is > 8.30; with SNU16 cells, ≥ 8.00. In addition, the “Selectivity FGFR1/FGFR2” value on FGFR1 is “A (Selectivity of FGFR1/FGFR2 less than 500 but greater than or equal to 300)”.

Values taken from patent US20240383905A1, “FGFR INHIBITORS AND METHODS OF USE THEREOF” (3H PHARMACEUTICALS CO., LTD., priority 2021, published 2024).
